For series [1], the system named is guinea pig PRP. The series can be described thus: Inhibition of ADP-induced aggregation in guinea pig platelet rich plasma (PRP), method of Born. Format: cell-based. The conditions noted are these: Cavia porcellus, aggregation provoked by 4 μmol/ml of ADP, read-out: IC100 on guinea pig PRP (concentration required to attain 100% inhibiting effect). The source says: (§1) The main pharmacological effect of the new compounds according to the invention is that, like PGI2, they inhibit blood platelet aggregation and are able to dissolve the already existing agglomerates. The aggregation inhibiting effects of the new compounds were examined on human and guinea pig platelet rich plasma (PRP) according to the method of Born. Aggregation was provoked by adding 4 μmol/ml of ADP to the plasma, and then the prostacycline concentrations required to attain 50% or 100% inhibiting effect (IC50 or IC100) were determined.

The subject of series [2] is human PRP. The series can be described thus: Inhibition of ADP-induced aggregation in human platelet rich plasma (PRP), method of Born. The format is cell-based. The conditions noted are these: aggregation provoked by 4 μmol/ml of ADP, read-out: IC50 on human PRP (concentration required to attain 50% inhibiting effect).
Excerpt: as §1

The conditions of series [3]: sodium salt: storage, free acid: physiological conditions, hydrolysis into 6-keto-PGF1α, cited from earlier work.
Series [4] can be described thus: Biological half-life in aqueous medium (period within which the biological activity drops to the half). Format: physicochemical. Particulars: aqueous medium at pH=7. Here is the method:
The biological half-life (i.e. the period within which the biological activity of the substance drops to the half) is 3 minutes for PGI2 an an aqueous medium at pH=7, and about 7 days for the new compounds according to the invention.

Consider three molecules from patent US4451483A, “2,3,4-Trinor-m-inter-phenylene-prostaglandin derivatives and compositions and method for inhibiting blood platelet aggregation” (Chinoin Gyogyszer es Vegyeszeti Termekek Gyara Rt., priority 1981, dated 1984).

One may read the half-life as how long it takes for the measured level to halve. Low readings indicate rapid decline, high ones slow decline.

Counter-ions that a name gives are not always drawn. Like-named read-outs stand apart in the source and are kept apart here.

As to `CCCCCC[C@H](O)/C=C/[C@@H]1[C@H]2C/C(=C/c3cccc(C(=O)O)c3)O[C@H]2C[C@H]1O` [5(Z)-2,3,4-Trinor-1,5-inter-m-phenylene-20-methyl-PGI2 sodium salt], the IC100 in series [1] turned out to be 0.014 µg/mL. Also, the IC50 in series [2] is 12.5 ng/mL.
In the case of `CCCCC[C@H](O)/C=C/[C@@H]1[C@H]2C/C(=C/CCCC(=O)O)O[C@H]2C[C@H]1O` [PGI2 sodium salt], the “stability of prostacycline sodium salt / free acid” value in series [3] (listed as sodium salt of prostacycline) is listed as “very stable, highly storable compound”. In series [1], the IC100 was 0.00175 µg/mL. The IC50 in series [2] is 2 ng/mL.
In the case of `CCCCC[C@H](O)/C=C/[C@@H]1[C@H]2C/C(=C/CCCC(=O)O)O[C@H]2C[C@H]1O` [PGI2], the “stability of prostacycline sodium salt / free acid” value in series [3] (listed as free PGI2 acid) is “rapidly hydrolyzes into 6-keto-PGF1α”. The half-life in series [4] came to 3 min.
